Earlier results in article PMC11054282, “Structural Investigations on 2-Amidobenzimidazole Derivatives as New Inhibitors of Protein Kinase CK1 Delta” (Pharmaceuticals, 2024).
Like-named read-outs stand apart in the source and are kept apart here.

What was measured:
CK1ε = conditions: cited from earlier work
CK1δ = conditions: cited from earlier work

COc1ccc(/C=C/C(=O)Nc2cc(-c3nc(SC)[nH]c3-c3ccc(F)cc3)ccn2)c(OC)c1 [III]
IC50 (CK1ε; compound III, Figure 1): 73 nM | IC50 (CK1δ; compound III, Figure 1, read-out: CK1δ IC50): 4 nM

COc1ccc(/C=C/C(=O)Nc2cc(-c3c(-c4ccc(F)cc4)noc3C(C)C)ccn2)c(OC)c1 [II]
IC50 (CK1ε; compound II, Figure 1): 2520 nM | IC50 (CK1δ; compound II, Figure 1, read-out: CK1δ IC50): 33 nM

O=C(Nc1nc2cc(C(F)(F)F)ccc2[nH]1)c1csc(NC(=O)c2ccccc2OC(F)(F)F)n1 [V]
IC50 (CK1δ; Bischof-5, Figure 2, read-out: CK1δ IC50): […]
